Results from US20200299671A1, “IMMOBILIZED MULTI-ENZYMATIC HALOGENATION SYSTEM” (priority 2019, published 2020).

What was measured:
[1] = target: T1, PltM (Pseudomonas protegens, UniProt Q4KCZ3); assay: In vitro PltM halogenation assay with a single halide salt, substrate profile (Assay 1a-1d), LC-MS; type: biochemical
Method: The halogenation assays were carried out similarly to a recently described procedure. For substrate profile determination (Assay 1), 100 μL reactions were carried out in 30 mM sodium phosphate pH 7.4. As a halide source, 200 mM of either NaF (Assay 1a), NaCl (Assay 1b), NaBr (Assay 1c), or NaI (Assay 1d) was used. To ensure that PltM is incapable of fluorinating, an additional 200 μL reaction with 300 mM NaF was run. A 200 μL reaction with 400 mM NaBr was also run to ensure no additional bromination reaction occurred. Each reaction also contained a specified substrate (0.5 mM), FAD (0.2 mM), NADPH (5 mM), PltM (5.5 μM), and SsuE (5.0 μM). The reactions were initiated by adding NADPH under N2. The reaction tubes were tightly closed to avoid contact with air. The reaction mixtures were incubated at 25° C. for 3 h prior to extraction with EtOAc (4×100 μL). The organic layer was dried by a gentle flow of air, and the residue was dissolved in MeOH to prepare 1-10 μg/mL samples for LC-MS analysis.
(§1) The halogenation reaction products were analyzed by HPLC or LC-MS by injecting 10 μL of each sample. The compounds were separated by Reversed-phase HPLC at the flow rate of 0.2 mL/min by using the following program: eluent A=H2O; eluent B=MeCN; gradient=2% B for 5 min, increase to 100% B over a 30 min period, stay at 100% B for 9 min, decrease to 2% B over a 1 min period, and re-equilibrate the column at 2% B for 30 min.
(§2) For HPLC analysis, the molecules were observed by absorbance at λ=275 nm as described above. As necessary, the following mass spectrometer was operated in negative and positive modes with the following parameters: For negative mode, mass range, 80-600 m/z in profile mode; temperature, 550° C. and ion spray voltage floating, −4500 V, and for positive mode, mass range, 80-600 m/z in profile mode; temperature, 550° C. and ion spray voltage floating, 4500 V. The presence of each compound was analyzed by extracted ion chromatograph (XIC) with the expected mass ±0.05 Da for Assay 1 and Assay 2 and ±0.005 Da for Assay 3 (FIGS. 2A-C, 8-13, and 17-37; Tables 3-4 and 7).

[2] = target: T1, PltM; assay: Halogenating competition assays in 1:1 or 10:1 mixtures of two halide salts (Assay 2a-2e), LC-MS; type: biochemical
Method: To establish if hetero-dihalogenation by PltM could be observed, halogenating competition assays in 1:1 or 10:1 mixtures of two different halide salts were performed (Assay 2). The reactions contained the same components as above except single halide salts were replaced with either a 1:1/NaCl:NaBr (Assay 2a), 1:1/NaCl:NaI (Assay 2b), or 1:1/NaBr:NaI (Assay 2c) mixtures (100 mM of each halide). The reactions were initiated by adding NADPH under N2. A 1:1/NaCl:NaBr reaction was also performed with 200 mM of each halide to test occurrence of homo-di- or hetero-chlorination/bromination, and 10:1/NaCl:NaI (Assay 2d) and 10:1/NaBr:NaI (Assay 2e) mixtures with 200 mM of NaCl or NaBr and 20 mM of NaI were tested to check whether chlorination or bromination could occur in the presence of iodide and whether iodination can occur with chlorination or bromination to yield a C1,I-substrate or Br,I-substrate. The reactions were incubated and processed as described above in Assay 1.
as §1, §2

T1 sequence (Q4KCZ3 entry or part of it): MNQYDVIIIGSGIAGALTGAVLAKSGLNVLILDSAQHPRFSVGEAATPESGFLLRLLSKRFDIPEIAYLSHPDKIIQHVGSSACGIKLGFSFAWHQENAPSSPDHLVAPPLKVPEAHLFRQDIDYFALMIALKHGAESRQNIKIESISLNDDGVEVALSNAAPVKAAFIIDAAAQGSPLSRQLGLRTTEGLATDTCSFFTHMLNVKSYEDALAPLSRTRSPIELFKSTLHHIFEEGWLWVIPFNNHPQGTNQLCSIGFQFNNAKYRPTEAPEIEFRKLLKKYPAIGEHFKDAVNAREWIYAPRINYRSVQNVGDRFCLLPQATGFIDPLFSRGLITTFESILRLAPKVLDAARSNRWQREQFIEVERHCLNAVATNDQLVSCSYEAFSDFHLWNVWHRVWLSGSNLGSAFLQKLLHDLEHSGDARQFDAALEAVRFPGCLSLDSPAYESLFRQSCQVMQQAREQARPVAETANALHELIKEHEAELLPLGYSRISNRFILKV

In the case of `Oc1cc(O)cc(O)c1` [Compound 1, phloroglucinol], the “bromination by PltM (products identified by LC-MS)” value ([1]; NaBr as halide source (Assay 1c)) is reported as “only mono-halogenation”, the “chlorination by PltM (products identified by LC-MS)” value ([1]; NaCl as halide source (Assay 1b)) is reported as “Mono- and dihalogenation” and the “fluorination by PltM (products identified by LC-MS)” value ([1]; NaF as halide source (Assay 1a)) is reported as “not fluorinated”. The “iodination by PltM (products identified by LC-MS)” value ([1]; NaI as halide source (Assay 1d)) was “Mono- and dihalogenation”, the “products of competitive halogenation” value ([2]; 10-fold molar excess of NaBr over NaI) was “mono-brominated, mono-iodinated, and diiodinated 1 were identified” and the “products of competitive halogenation” value ([2]; 10-fold molar excess of NaCl over NaI) was “all possible mono- and dihalogenated products were identified, including chloro-iodinated 1”. For the same compound, the “products of competitive halogenation” value ([2]; two halides (Cl/Br, Cl/I or Br/I) at equimolar ratios) was “mono-halogenated products of either halogen and diiodinated 1 where NaI was used”.
